Assays:
[1] = xn = mol fraction of the nth substance listed; conditions: 303.15 K, Maximal bubble pressure
[2] = refractive index (Na D-line) (dimensionless); conditions: 298.15 K; 101.33 kPa; Liquid; Standard Abbe refractometry
[3] = for vapor or sublimation pressure / mass density: Liquid; for mass density: 298.15 K, 101.33 kPa; for surface tension liquid-gas: 303.15 K, Ring tensiometer

CC(C)OC(C)C [diisopropyl ether] + CC(C)=O
[1]
Conditions | surface tension liquid-gas [mN/m]
x2 = 0.046 | 16.75
x2 = 0.089 | 16.8
x2 = 0.187 | 16.95
x2 = 0.29 | 17.3
x2 = 0.39 | 17.65
x2 = 0.499 | 18.05
x2 = 0.61 | 18.6
x2 = 0.722 | 19.2
x2 = 0.829 | 20.15
x2 = 0.93 | 21.3
x2 = 0.973 | 21.94

CC(C)=O [acetone] + C1CCCCC1
[1]
Conditions | surface tension liquid-gas [mN/m]
x1 = 0.047 | 23.85
x1 = 0.091 | 23.6
x1 = 0.185 | 23.1
x1 = 0.298 | 22.7
x1 = 0.403 | 22.4
x1 = 0.513 | 22.2
x1 = 0.621 | 22.1
x1 = 0.736 | 22.05
x1 = 0.842 | 22.15
x1 = 0.943 | 22.4

CC(C)=O [acetone]
Conditions | mass density [kg/m3] | refractive index | surface tension liquid-gas [mN/m]
[2] | – | 1.35732 | –
[3] | 784.23 | – | 22.45

[3], Ebulliometric method (Recirculating still)
Conditions | vapor or sublimation pressure [kPa]
297.65 K | 30.06
303.23 K | 38.04
307.39 K | 45.04
310.58 K | 51.08
314.35 K | 59.07
317.33 K | 66.06
320.08 K | 73.08
322.61 K | 80.07
324.96 K | 87.09
327.17 K | 94.07
329.33 K | 101.35

CC(C)OC(C)C [diisopropyl ether] + C1CCCCC1
[1]
Conditions | surface tension liquid-gas [mN/m]
x1 = 0.049 | 23.3
x1 = 0.098 | 22.7
x1 = 0.199 | 21.4
x1 = 0.301 | 20.7
x1 = 0.403 | 19.75
x1 = 0.509 | 19
x1 = 0.622 | 18.3
x1 = 0.727 | 17.8
x1 = 0.837 | 17.3
x1 = 0.936 | 16.9
x1 = 0.967 | 16.8

CC(C)OC(C)C [diisopropyl ether]
Conditions | mass density [kg/m3] | refractive index | surface tension liquid-gas [mN/m]
[2] | – | 1.36644 | –
[3] | 718.34 | – | 16.7

[3], Ebulliometric method (Recirculating still)
Conditions | vapor or sublimation pressure [kPa]
293.25 K | 16.02
302.42 K | 24.02
307.79 K | 30.02
313.73 K | 38.02
318.15 K | 45.02
321.52 K | 51.01
325.55 K | 59.01
328.74 K | 66.01
331.67 K | 73.01
334.38 K | 80.01
336.91 K | 87.01

C1CCCCC1 [cyclohexane]
Conditions | mass density [kg/m3] | refractive index | surface tension liquid-gas [mN/m]
[2] | – | 1.42508 | –
[3] | 773.84 | – | 24.1

[3]
Conditions | vapor or sublimation pressure [kPa]
302.71 K | 16.01
312.45 K | 24.02
318.13 K | 30.03
324.4 K | 38.02
329.08 K | 45.03
332.63 K | 51.01
336.88 K | 59.01
340.25 K | 66.01
343.34 K | 73.02
346.22 K | 80.03
348.89 K | 87.02
351.4 K | 94.02
354.06 K | 101.9

— the NIST ThermoML archive (doi:10.1016/j.fluid.2008.06.006)
